Experimental data from ChEMBL document CHEMBL1240326, “ATP non-competitive IGF-1 receptor kinase inhibitors as lead anti-neoplastic and anti-papilloma agents” (Eur J Pharmacol, 2007).

Experiments:
[1] = target: Proto-oncogene tyrosine-protein kinase Src (Homo sapiens, UniProt P12931); experiment: Inhibition of human GST-fused Src-mediated Poly Glu4Tyr phosphorylation by ELISA
[2] = cells; settings: Homo sapiens, HF1, 48 h
Description: Growth inhibition of human HF1 cells transfected with HPV16 after 48 hrs by micro culture methylene blue assay

[3] = tested on: Keratinocyte; experiment: cells; settings: Homo sapiens, 72 h
Description: Growth inhibition of human primary keratinocytes after 72 hrs by micro culture methylene blue assay

Sequence of Proto-oncogene tyrosine-protein kinase Src (P12931 2-536 limits assumed): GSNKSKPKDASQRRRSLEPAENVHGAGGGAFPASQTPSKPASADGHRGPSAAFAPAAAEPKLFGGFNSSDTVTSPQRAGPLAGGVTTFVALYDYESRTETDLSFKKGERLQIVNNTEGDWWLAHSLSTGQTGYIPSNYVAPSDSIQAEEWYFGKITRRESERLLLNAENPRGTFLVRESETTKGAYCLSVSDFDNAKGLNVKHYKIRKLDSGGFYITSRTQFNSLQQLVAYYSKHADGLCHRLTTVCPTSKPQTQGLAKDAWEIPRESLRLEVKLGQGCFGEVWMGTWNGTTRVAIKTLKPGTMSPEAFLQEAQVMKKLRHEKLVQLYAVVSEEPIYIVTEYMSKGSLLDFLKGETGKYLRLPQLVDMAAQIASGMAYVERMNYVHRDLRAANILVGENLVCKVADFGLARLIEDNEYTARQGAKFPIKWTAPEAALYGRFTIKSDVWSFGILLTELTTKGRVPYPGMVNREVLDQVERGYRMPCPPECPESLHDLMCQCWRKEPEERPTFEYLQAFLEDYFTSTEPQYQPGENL

Row | IC50 [1] | IC50 [2] | IC50 [3] | Compound
1 | 1.86 µM | 170 µM | 73 µM | Oc1ccc(CNc2ccc3c(c2)OCO3)cc1O
2 | 0.83 µM | 106 µM | 18 µM | Oc1ccc(CN(Cc2ccc(O)c(O)c2)c2ccc3c(c2)OCO3)cc1O
3 |  | 390 µM |  | N#C/C(=C\c1ccc(O)c(O)c1)C(=O)c1ccc(O)c(O)c1
